Measured values: patent publication US12496309B2, “Method for treatment of pancreatitis” (NovMetaPharma Co., Ltd., priority 2020, dated 2025)

Legend:
Plasma stability r = type: in vitro ADME, rat
ERRγ [1] = biological target: T1, ERRγ (Homo sapiens, UniProt P62508); experiment: ERRγ binding
T1 sequence (P62508 1-458): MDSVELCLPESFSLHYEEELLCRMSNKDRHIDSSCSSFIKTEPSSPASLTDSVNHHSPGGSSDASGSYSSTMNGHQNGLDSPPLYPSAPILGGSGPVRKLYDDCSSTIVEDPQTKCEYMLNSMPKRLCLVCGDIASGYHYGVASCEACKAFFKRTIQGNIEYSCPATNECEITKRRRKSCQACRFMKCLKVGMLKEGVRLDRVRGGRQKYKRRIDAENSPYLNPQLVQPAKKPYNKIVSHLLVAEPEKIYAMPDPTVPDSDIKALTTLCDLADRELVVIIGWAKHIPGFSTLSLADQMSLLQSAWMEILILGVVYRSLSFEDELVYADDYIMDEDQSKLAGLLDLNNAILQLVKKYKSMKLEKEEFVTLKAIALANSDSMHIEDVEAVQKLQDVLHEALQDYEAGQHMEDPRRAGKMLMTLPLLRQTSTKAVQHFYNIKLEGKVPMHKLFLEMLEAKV

[2] = system: Caerulein-induced acute pancreatitis; experiment: Caerulein-induced model of acute pancreatitis; type: in vivo, mouse; conditions: 20 mg/kg
Protocol: (§1) • Materials: Caerulein (C9026) and Taurolithocholic acid 3-sulfate disodium salt (TLCS; T0512) was purchased from Sigma. • Animal models: Eight to ten-week male C57BL/6 mice (Jackson Lab) were used according to an animal protocol approved by the Institutional Animal Care and Use Committee of Kyungpook National University. 1. Caerulein-Induced Model of Pancreatitis
Acute pancreatitis (AP) was induced by intraperitoneal injections of caerulein at 50 μg/kg/h given 6 times.
(§2) Upon completion of experiments with above-mentioned animal models (1) and (2), pancreas tissue were snap frozen in liquid nitrogen and stored at −80° C. for analysis of trypsin activity, for protein analysis by Western blots and for gene expression analysis by RT-qPCR. Pancreas were dissected and fixed in 10% neutral-buffered formalin and embedded in paraffin. Five-μm sections were prepared and stained with hematoxylin and eosin (H&E). Pancreas injury was determined by measuring serum amylase (K711-100, Biovision), serum lipase (MAK046, Sigma) and pancreatic tissue trypsin activity (Biovision) was determined using commercially available kit.
Next, the inventors analyzed the efficacy of the compound of Chemical Formula 1 in vivo using two different animal models of acute pancreatitis. […] They pretreated mice with a single dose of compound of Chemical Formula 1, 24 hours prior to Caerulein challenge. An additional dose of compound of Chemical Formula 1 was administered to the animals at the beginning of Caerulein challenge. Upon completion of the experimental timeline, these animals were sacrificed and serum and pancreas tissue samples were collected and analyzed.

[3] = MS (microsomal stability) d; type: in vitro ADME, dog
hERG [4] = biological target: T2, hERG (Homo sapiens, UniProt Q12809); experiment: hERG binding
T2 sequence (Q12809 whole entry): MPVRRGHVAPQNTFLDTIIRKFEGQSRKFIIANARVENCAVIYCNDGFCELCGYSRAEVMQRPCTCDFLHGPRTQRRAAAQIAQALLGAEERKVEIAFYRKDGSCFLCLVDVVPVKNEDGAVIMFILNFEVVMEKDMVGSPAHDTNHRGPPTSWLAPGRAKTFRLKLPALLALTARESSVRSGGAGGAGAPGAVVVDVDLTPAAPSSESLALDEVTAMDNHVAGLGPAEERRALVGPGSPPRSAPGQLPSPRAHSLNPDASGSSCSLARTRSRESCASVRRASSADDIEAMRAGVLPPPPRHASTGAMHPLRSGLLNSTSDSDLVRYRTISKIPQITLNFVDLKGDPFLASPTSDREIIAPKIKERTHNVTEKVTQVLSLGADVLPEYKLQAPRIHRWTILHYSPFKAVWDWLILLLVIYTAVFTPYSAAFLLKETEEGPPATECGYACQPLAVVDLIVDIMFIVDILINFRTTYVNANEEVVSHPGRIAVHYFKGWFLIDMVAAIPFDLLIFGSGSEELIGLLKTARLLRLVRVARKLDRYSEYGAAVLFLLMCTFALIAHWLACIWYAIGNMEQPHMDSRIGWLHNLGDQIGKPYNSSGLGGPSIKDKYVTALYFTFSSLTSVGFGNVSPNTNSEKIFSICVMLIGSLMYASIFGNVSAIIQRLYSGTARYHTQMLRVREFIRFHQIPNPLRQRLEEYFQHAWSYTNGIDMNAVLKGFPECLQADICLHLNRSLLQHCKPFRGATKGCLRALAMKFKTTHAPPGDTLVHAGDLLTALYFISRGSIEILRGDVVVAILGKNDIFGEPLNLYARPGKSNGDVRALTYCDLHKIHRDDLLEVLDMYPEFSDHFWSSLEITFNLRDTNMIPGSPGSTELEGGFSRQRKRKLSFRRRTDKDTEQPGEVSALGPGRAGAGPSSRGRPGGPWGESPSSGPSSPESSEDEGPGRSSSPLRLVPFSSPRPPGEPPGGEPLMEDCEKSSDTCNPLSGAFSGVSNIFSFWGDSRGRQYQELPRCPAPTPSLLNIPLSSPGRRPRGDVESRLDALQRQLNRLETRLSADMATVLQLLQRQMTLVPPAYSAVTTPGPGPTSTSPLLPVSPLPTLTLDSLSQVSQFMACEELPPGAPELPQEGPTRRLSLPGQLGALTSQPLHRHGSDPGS

Water solubility = type: physicochemical
hERG [5] = biological target: T2, hERG; experiment: hERG current; type: cell-based
CYP = CYP inhibition, all isoforms; type: in vitro ADME
[6] = MS (microsomal stability) r; type: in vitro ADME, rat
PK = type: in vivo; conditions: for Cmax / PK BA % / clearance / half-life / Vd: in vivo; for clearance: read-out: PK CL; for half-life: read-out: PK T½ (converted); for Vd: read-out: PK Vss
Single dose toxicity = conditions: in vivo, read-out: Single dose Tax, LD50
Text: Next, the inventors analyzed the toxicity of these compounds in vivo (Table 3). […]

Plasma stability h = type: in vitro ADME, human
[7] = MS (microsomal stability) m; type: in vitro ADME, mouse
[8] = system: TLCS-induced acute pancreatitis; experiment: Intraductal bile acid (TLCS) infusion model of pancreatitis; type: in vivo, mouse; conditions: 20 mg/kg
Text: as §1, §2
Upon completion of the experimental timeline, these animals were sacrificed and serum and pancreas tissue samples were collected and analyzed.

ERRγ [9] = biological target: T1, ERRγ; experiment: ERRγ functional assay; type: biochemical
Permeability (PAMPA) = type: in vitro ADME; conditions: for Papp: PAMPA
[10] = MS (microsomal stability) h; type: in vitro ADME, human
ERα = ERα (Homo sapiens, UniProt P03372); experiment: ERα binding selectivity
ERα, sequence (P03372 whole entry): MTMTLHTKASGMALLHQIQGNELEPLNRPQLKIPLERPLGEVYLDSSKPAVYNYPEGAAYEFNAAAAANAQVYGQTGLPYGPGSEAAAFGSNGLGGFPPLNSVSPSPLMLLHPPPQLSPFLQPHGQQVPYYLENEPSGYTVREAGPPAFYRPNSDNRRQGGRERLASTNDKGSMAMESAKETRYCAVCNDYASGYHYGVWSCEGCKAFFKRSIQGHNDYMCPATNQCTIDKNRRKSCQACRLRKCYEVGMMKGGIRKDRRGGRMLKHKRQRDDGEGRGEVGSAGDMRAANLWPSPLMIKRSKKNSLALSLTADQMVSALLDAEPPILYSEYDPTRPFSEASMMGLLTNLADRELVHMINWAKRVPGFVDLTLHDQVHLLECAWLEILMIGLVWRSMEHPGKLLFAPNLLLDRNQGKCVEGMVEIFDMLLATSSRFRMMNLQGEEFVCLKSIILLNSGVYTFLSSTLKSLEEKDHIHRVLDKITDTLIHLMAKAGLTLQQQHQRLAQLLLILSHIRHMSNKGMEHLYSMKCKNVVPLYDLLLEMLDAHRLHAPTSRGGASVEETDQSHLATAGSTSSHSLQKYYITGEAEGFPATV

ERRα = ERRα (Homo sapiens, UniProt P11474); experiment: ERRα binding selectivity
ERRα, sequence (P11474 whole entry): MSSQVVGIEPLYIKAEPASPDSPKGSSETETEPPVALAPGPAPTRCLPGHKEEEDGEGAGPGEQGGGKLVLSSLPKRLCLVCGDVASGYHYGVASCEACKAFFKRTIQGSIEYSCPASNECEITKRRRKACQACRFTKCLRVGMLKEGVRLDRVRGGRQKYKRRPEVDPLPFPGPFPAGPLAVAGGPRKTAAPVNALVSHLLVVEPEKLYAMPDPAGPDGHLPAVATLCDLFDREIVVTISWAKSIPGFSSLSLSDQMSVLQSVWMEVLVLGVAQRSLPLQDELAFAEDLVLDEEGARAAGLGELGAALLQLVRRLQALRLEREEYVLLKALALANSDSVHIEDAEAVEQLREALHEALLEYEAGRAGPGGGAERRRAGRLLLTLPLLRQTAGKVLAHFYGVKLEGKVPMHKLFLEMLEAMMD

CYP 2D6 = CYP 2D6 (Homo sapiens, UniProt P10635); experiment: CYP inhibition 2D6; type: in vitro ADME
CYP 2D6, sequence (P10635 whole entry): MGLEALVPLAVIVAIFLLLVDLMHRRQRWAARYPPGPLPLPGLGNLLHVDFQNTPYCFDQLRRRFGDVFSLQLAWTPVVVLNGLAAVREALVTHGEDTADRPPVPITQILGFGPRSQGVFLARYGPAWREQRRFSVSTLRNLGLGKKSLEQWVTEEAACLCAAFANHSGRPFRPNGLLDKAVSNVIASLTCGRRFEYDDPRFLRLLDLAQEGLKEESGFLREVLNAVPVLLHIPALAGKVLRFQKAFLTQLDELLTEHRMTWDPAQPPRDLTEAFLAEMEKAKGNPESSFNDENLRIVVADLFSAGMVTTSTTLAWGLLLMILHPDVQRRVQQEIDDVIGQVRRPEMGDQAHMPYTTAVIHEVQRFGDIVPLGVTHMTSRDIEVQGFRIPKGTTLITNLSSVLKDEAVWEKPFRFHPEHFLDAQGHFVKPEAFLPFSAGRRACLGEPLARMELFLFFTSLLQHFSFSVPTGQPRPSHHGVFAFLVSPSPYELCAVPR

CYP 3A4 = CYP 3A4 (Homo sapiens, UniProt P08684); experiment: CYP inhibition 3A4; type: in vitro ADME
CYP 3A4, sequence (P08684 whole entry): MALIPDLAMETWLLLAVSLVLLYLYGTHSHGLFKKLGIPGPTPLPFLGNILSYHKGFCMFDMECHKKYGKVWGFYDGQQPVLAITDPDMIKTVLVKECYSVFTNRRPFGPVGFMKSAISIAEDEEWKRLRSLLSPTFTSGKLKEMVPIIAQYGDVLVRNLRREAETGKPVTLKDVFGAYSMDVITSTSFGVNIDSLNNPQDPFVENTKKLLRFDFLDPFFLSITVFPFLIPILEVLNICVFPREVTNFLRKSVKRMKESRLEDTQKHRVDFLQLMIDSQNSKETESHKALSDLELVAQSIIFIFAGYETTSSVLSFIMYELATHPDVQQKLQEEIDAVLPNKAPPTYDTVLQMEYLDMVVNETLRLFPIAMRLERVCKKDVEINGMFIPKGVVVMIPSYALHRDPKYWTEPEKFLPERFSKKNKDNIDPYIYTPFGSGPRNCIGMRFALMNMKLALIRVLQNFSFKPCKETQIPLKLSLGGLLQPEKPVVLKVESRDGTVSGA

CYP 2C9 = CYP 2C9 (Homo sapiens, UniProt P11712); experiment: CYP inhibition 2C9; type: in vitro ADME
CYP 2C9, sequence (P11712 whole entry): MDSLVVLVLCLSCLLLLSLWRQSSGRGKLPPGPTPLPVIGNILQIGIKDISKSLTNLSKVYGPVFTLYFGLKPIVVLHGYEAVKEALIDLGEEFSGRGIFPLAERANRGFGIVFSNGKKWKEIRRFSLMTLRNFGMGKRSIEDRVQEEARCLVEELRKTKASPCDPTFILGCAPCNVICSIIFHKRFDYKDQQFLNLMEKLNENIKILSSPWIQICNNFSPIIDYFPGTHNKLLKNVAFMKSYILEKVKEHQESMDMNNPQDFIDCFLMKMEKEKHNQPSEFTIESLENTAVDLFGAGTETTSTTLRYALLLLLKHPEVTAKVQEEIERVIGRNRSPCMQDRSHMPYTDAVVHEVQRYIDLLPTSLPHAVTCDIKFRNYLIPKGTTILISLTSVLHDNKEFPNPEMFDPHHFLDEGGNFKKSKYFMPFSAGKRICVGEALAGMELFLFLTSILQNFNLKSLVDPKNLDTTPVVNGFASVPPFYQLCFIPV

CYP 1A2 = CYP 1A2 (Homo sapiens, UniProt P05177); experiment: CYP inhibition 1A2; type: in vitro ADME
CYP 1A2, sequence (P05177 whole entry): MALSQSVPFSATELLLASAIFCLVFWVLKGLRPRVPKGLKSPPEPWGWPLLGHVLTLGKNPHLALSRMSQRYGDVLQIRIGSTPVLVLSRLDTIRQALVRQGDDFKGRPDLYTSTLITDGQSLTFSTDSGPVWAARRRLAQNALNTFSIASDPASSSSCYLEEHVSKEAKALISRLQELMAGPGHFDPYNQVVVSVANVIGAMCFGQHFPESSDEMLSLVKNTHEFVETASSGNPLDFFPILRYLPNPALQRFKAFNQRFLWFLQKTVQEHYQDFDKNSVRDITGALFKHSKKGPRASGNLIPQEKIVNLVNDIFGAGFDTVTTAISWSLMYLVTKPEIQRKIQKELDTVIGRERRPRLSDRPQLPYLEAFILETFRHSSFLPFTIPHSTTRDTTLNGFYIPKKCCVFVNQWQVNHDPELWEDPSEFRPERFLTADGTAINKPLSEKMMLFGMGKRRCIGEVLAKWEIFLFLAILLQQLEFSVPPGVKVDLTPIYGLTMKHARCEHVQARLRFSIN

CYP 2C19 = CYP 2C19 (Homo sapiens, UniProt P33261); experiment: CYP inhibition 2C19; type: in vitro ADME
CYP 2C19, sequence (P33261 whole entry): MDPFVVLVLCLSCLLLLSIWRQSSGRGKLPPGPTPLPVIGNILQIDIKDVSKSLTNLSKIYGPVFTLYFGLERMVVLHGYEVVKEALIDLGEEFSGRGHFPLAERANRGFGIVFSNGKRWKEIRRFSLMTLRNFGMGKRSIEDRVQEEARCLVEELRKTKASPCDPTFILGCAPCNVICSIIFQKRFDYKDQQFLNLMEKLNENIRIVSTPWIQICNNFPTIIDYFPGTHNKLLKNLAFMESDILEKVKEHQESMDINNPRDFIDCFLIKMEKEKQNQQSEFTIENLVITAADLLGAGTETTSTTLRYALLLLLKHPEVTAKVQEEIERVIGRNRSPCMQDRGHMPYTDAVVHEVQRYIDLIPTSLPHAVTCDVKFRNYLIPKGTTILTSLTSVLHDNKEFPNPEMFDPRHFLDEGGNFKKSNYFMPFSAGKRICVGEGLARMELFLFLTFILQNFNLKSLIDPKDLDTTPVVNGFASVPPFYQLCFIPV

Structure (SMILES)	MS (% of control) d [3]	IC50 (hERG [4]) [µM]	solubility (Water solubility) [µg/mL]	IC50 (hERG [5]) [µM]	CYP (% remaining at 10 μM), All (CYP)	MS (% of control) r [6]	Cmax (PK) [nM]	PK BA % (PK) [%]	clearance (PK) [mL/min/kg]	half-life (PK) [h]	Vd (PK) [L/kg]	PK iv AUC (PK) [μMh]	PK po AUC (PK) [μMh]	LD50 (Single dose toxicity) [mg/kg]	MS (% of control) m [7]	Papp (Permeability (PAMPA)) [×10⁻⁶ cm/s]	MS (% of control) h [10]	further results
CC(C)N1CCN(c2ccc(/C(=C(/CCCO)c3ccccc3)c3ccc(O)cc3)cc2)CC1 [DMRC200434, (E)-5-(4-hydroxyphenyl)-5-(4-(4-isopropylpiperazin-1-yl)phenyl)-4-phenylpent-4-en-1-ol]	50 % of control	> 10	> 1000	21.3	OK All >64%	33 % of control	208	22	75	3.7	16	0.42	0.82	> 2000	20 % of control	0.46	27 % of control	Plasma Stability (% of remaining after 2 h) r (Plasma stability r): 97.1%; IC50 (ERRγ [1]): 0.04 µM; Caerulein-induced acute pancreatitis, overall outcome [2]: rescues mice; Serum amylase ([2]; 24 h before and at start of Caerulein, vs Caerulein alone): dramatic reduction; Pancreatic histopathology (H&E) ([2]; vs Caerulein alone): dramatically improved; Pancreatic tissue trypsin activity ([2]; vs Caerulein alone): dramatic reduction; Serum lipase ([2]; vs Caerulein alone): dramatic reduction; Plasma Stability (% of remaining after 2 h) h (Plasma stability h): 92.1%; Sodium Taurocholate-induced acute pancreatitis, overall outcome [8]: rescues mice; IC50 (ERRγ [9]): 0.006 µM
OCCC/C(=C(\c1ccc(O)cc1)c1ccc(C2CCN(C3CC3)CC2)cc1)c1ccccc1 [DMRC200699, (E)-5-(4-hydroxyphenyl)-5-(4-(N-cyclopropylpiperidin-4-yl)phenyl)-4-phenylpent-4-en-1-ol]	92 % of control	–	> 1000	–	–	92 % of control	380	46	68	3	12	0.50	2.24	–	84 % of control	0.35	–	–
OCCC/C(=C(/c1ccc(C2CCN(C3CC3)CC2)cc1)c1cccc(O)c1)c1ccccc1 [DMRC200966, (E)-5-(5-hydroxyphenyl)-5-(4-(N-cyclopropylpiperidin-4-yl)phenyl)-4-phenylpent-4-en-1-ol]	57 % of control	17	> 1000	> 30	OK All >83%	50 % of control	1510	58.2	45	1.8	4.6	0.85	4.93	–	25 % of control	0.014	62 % of control	IC50 (ERα): > 10 µM; IC50 (ERRα): > 10 µM
CC(C)N1CCN(c2ccc(/C(=C(/CCCO)c3ccccc3)c3cccc(O)c3)cc2)CC1 [DMRC2001000, (E)-5-(5-hydroxyphenyl)-5-(4-(4-isopropylpiperazin-1-yl)phenyl)-4-phenylpent-4-en-1-ol]	61 % of control	–	> 1000	–	–	55 % of control	–	–	–	–	–	0.99	4.18	> 2000	27 % of control	–	65 % of control	CYP (% remaining at 10 μM) 2D6 (CYP 2D6): 66%; CYP (% remaining at 10 μM) 3A4 (CYP 3A4): 3A4(48) %; Permeability (PAMPA) (Permeability (PAMPA)): 1.29 10^−6 cm/s; CYP (% remaining at 10 μM) 2C9 (CYP 2C9): 76%; CYP (% remaining at 10 μM) 1A2 (CYP 1A2): 100%; CYP (% remaining at 10 μM) 2C19 (CYP 2C19): 100%
CN(C)CCOc1ccc(/C(=C(/CCCO)c2ccccc2)c2ccc(O)cc2)cc1 [GSK5182, reference compound]	10 % of control	–	> 1000	–	OK All >73%	26 % of control	–	8.4	44	–	–	0.89	0.68	–	7 % of control	–	43 % of control	–
